Activity calls are given as the source filed them. The rule behind the calls is not given here.
Columns and labels:
[1] = tested on: Chlamydia trachomatis; test: Antimicrobial activity against Chlamydia trachomatis Nigg infected in BALB/c mouse genital tract infection model assessed as recovery of inclusion forming units from cervicovaginal swabs at 3 mg/ml, ip administered on days 42 to 56 days postinfection; format: functional, organism-based
[2] = tested on: Chlamydia trachomatis; test: Antimicrobial activity against Chlamydia trachomatis Nigg infected in BALB/c mouse genital tract infection model assessed as severe oviduct dilation at 3 mg/ml, ip administered on days 10 to 24 days postinfection; format: functional
[3] = tested on: Chlamydia trachomatis; test: Effect on chlamydial plasmid DNA of Chlamydia trachomatis Nigg infected in BALB/c mouse genital tract infection model at 3 mg/ml, ip administered on days 42 to 56 days postinfection by nested PCR; format: functional, organism-based
[4] = tested on: Chlamydia trachomatis; test: Antimicrobial activity against Chlamydia trachomatis Nigg infected in BALB/c mouse genital tract infection model assessed as severe oviduct dilation at 3 mg/ml, ip administered on days 42 to 56 days postinfection; format: functional
[5] = tested on: Chlamydia trachomatis; test: Antimicrobial activity against Chlamydia trachomatis Nigg infected in BALB/c mouse genital tract infection model assessed as recovery of inclusion forming units from cervicovaginal swabs at 3 mg/ml, ip administered on days 10 to 24 days postinfection; format: functional, organism-based
[6] = tested on: Chlamydia trachomatis; test: Effect on chlamydial plasmid DNA of Chlamydia trachomatis Nigg infected in BALB/c mouse genital tract infection model at 3 mg/ml, ip administered on days 10 to 24 days postinfection by nested PCR; format: functional, organism-based

C[C@H]1c2cccc(O)c2C(=O)C2=C(O)[C@]3(O)C(=O)C(C(N)=O)=C(O)[C@@H](N(C)C)[C@@H]3[C@@H](O)[C@@H]21.O [DOXYCYCLINE]
Activity [1]: Active
Activity [2]: 30%
Activity [3]: inactive
Activity [4]: 80%
Activity [5]: Active
Activity [6]: inactive
